Literature values, collected in patent US20210153530A1, “FOOD PROTECTING COMPOSITION FOR MEAT, MEAT PRODUCTS AND DAIRY PRODUCTS” (priority 2018, published 2021).

Key:
[1] = test system: moulds and yeasts; details: raw pork, heat-treated and pasteurised
[2] = test system: coliform microorganisms and arerobic spore-forming microorganisms; details: raw pork goulash, heat-treated

For `N=C(N)N` [guanidium], the “effect on growth of moulds and yeasts” value [1] is given as “has an effect on the growth” and the “influence on coliform and aerobic spore-forming microorganisms” value [2] is given as “not significantly influenced”.
